According to patent US9051306B2, “Indirubin derivative having highly selective cytotoxicity for malignant tumors” (NIHON UNIVERSITY, priority 2011, dated 2015):
“Also recorded” adds a separate entry of the source. Like-named read-outs stand apart in the source and are kept apart here. Blank lines part the entries; values can stand above or below the molecule they belong to.

Assays:
[1] = tested on: human umbilical vein endothelial cells (HUVEC); assay: Cytotoxicity, MTT method, HUVEC non-tumor cells; assay type: cell-based
Method: (§1) Antitumor activity was determined by the MTT (3-(4,5-dimethylthiazol-2-yl)-2,5-diphenyltetrazolium bromide) method.
(§2) One hundred μL of a suspension of tumor cells in an RPMI 1640 medium was seeded into a 96-well plate (1×10^4 cells/well) and cultured for 24 hours (5% CO2, 37° C., saturated humidity conditions). Subsequently, the test compound (final concentration of from 1×10^−5 to 1×10^−8 M) and DMSO as a control were each added in an amount of 0.2 μL and allowed to act on the tumor cells for 48 hours. Subsequently, 10 μL of a 0.5% MTT solution was added. After 3 hours, 100 μL of a reaction terminating solution (0.04 N HCl/isopropanol) was added to terminate the reaction. After thorough pipetting, the absorbance was measured at 570 nm (top) and 655 nm (bottom) using a microplate reader. The cell survival rate for each sample at each concentration was calculated as a percentage to the control group, and IC50 values were determined from the data. The tumor cells used were human neuroblastoma cells IMR-32, SK-N-SH, LA-N-1, and NB-39 and human liver cancer cells HepG-2. Non-tumor cells: normal human dermal fibroblasts (NHDF) and human umbilical vein endothelial cells (HUVEC) were also used.

[2] = tested on: normal human dermal fibroblasts (NHDF); assay: Cytotoxicity, MTT method, NHDF non-tumor cells; assay type: cell-based
Method: as §1, §2

[3] = tested on: human liver cancer cell line HepG2; assay: Antitumor activity (2), Alamar Blue cell survival; assay type: cell-based; conditions: 24 hours, read-out: cytotoxic activity (IC50: 50% inhibitory concentration)
Method: Fetal bovine serum (FBS) was added at a final concentration of 10% to dulbecco's modified eagle's medium (DMEM, Sigma-Aldrich), and a penicillin-streptomycin solution (GIBCO) was further added at a concentration of 0.1 mg/mL.
An Alamar Blue solution manufactured by Wako Pure Chemical Industries, Ltd. was used.
One hundred μL aliquot of a suspension of human liver cancer cell line HepG2 cells in DMEM medium (1.0×10^5 cells/mL) was dispensed into a 96-well culture plate. The cells were allowed to adhere to the plate by being cultured at 37° C. in 5% CO2 under saturated humidity conditions. After culture for 24 hours, the medium was removed by suction, and 100 μL of a test compound-containing medium (containing 1% DMSO) was added. The cells were cultured at 37° C. in 5% CO2 under saturated humidity conditions. After culture for 24 hours, the medium was removed by suction, and the cells were washed with phosphate buffered saline (PBS). The Alamar Blue reagent solution (100 μL) diluted 10 times with the medium was added to each well, and the cells were cultured under the same conditions. After 1 hour, the fluorescence intensity was measured at an excitation wavelength of 577 nm and a detection wavelength of 612 nm. When the cell survival rate was calculated, the value for the well added with the vehicle (containing 1% DMSO) was normalized as 100%.

[4] = tested on: human neuroblastoma cells IMR-32; assay: Antitumor activity, MTT method, IMR-32; assay type: cell-based
Method: as §1, §2

[5] = tested on: human liver cancer cells HepG-2; assay: Antitumor activity, MTT method, HepG-2; assay type: cell-based
Method: as §1, §2

[6] = tested on: human neuroblastoma cells NB-39; assay: Antitumor activity, MTT method, NB-39; assay type: cell-based
Method: as §1, §2

[7] = tested on: human neuroblastoma cells LA-N-1; assay: Antitumor activity, MTT method, LA-N-1; assay type: cell-based
Method: as §1, §2

[8] = tested on: human neuroblastoma cells SK-N-SH; assay: Antitumor activity, MTT method, SK-N-SH; assay type: cell-based
Method: as §1, §2

IMR-32 cells = assay: Ability to induce apoptosis, Hoechst 33342 staining method; assay type: cell-based, human
Method: The ability to induce apoptosis was examined using nuclear staining by the Hoechst 33342 staining method.
Two mL of a suspension of cells (IMR-32) in an RPMI 1640 medium was seeded into a 6-well plate (1×10^5 cells/well) and cultured for 24 hours (under 5% CO2, 37° C., and saturated humidity conditions). Subsequently, the test compound (final concentration of from 1×10^−5 M to 1×10^−7 M) and DMSO as a control were each added in an amount of 4 μL and allowed to act on the cells for 24 hours. Subsequently, 100 μL of a 0.02% Hoechst 33342 solution was added. After 15 minutes, phase-contrast images and fluorescence images of the cells were taken with a fluorescence microscope to observe changes in cell morphology.

tumor cells = assay: Antitumor activity, MTT method, overall statement on tumor cells; assay type: cell-based, human; conditions: from FIG. 1 and Table 1
Method: as §1, §2

[9] = tested on: human neuroblastoma IMR-32 cells; assay: Ability to induce apoptosis, flow cytometry (Annexin V-FITC/PI); assay type: cell-based; conditions: 24 hours
Method: Flow cytometry was used to detect whether the compound (HS-2) of the present invention had the ability to induce apoptosis of human neuroblastoma IMR-32 cells. Specifically, 2 mL of a suspension of cells (IMR-32) in an RPMI 1640 medium was seeded into a 6-well plate (1×10^6 cells/well) and cultured for 24 hours (under 5% CO2, 37° C., and saturated humidity conditions). Subsequently, the compound (HS-2) was added at a final concentration of from 1×10^−5 M to 1×10^−7 M and incubated under 37° C. and 5% CO2 conditions for 24 hours. The cells were detached with trypsin and washed with PBS. Annexin V-FITC and propidium iodide (PI) were then added to the cells to carry out flow cytometry. In this technique, only Annexin V-FITC fluorescence is observed from cells in the early apoptosis phase, and both Annexin V fluorescence and PI fluorescence are observed from cells in the late apoptosis phase.

IC50 ([4]; IMR-32, MTT, 48 hours, read-out: IC50): 28.2 µM
IC50 ([5]; HepG-2, Table 1, read-out: IC50): 10 µM
IC50 ([6]; NB-39, MTT, 48 hours, read-out: IC50): 2040 nM
IC50 ([7]; LA-N-1, MTT, 48 hours, read-out: IC50): 1630 nM
IC50 ([8]; MTT, 48 hours, read-out: IC50): 12.1 µM
SMILES: [NH2][Pt]([NH2])([Cl])[Cl] [CDDP, cisplatin, reference compound]
IC50 ([1]; HUVEC normal cells, MTT, 48 hours, read-out: IC50): 69.8 µM
IC50 ([2]; NHDF normal cells, MTT, 48 hours, read-out: IC50): > 100 µM
IC50 [3]: 10 µM

SMILES: O=C1Nc2ccccc2/C1=C1/Nc2ccccc2/C1=N\OCC1CO1 (stereo not drawn) [HS-2, indirubin-3′-(O-oxiran-2-ylmethyl)oxime]
IC50 ([1]; Homo sapiens, HUVEC, 48 h): 1.75 µM
apoptosis of IMR-32 neuroblastoma cells (IMR-32 cells; FIG. 2 legend): induced apoptosis
nuclear morphology (Hoechst 33342 staining) (IMR-32 cells; IMR-32, 0.1 μM, 24 hours, FIG. 2): induced nuclear aggregation and fragmentation
IC50 ([2]; Homo sapiens, NHDF, 48 h): 61.4 µM
IC50 ([3]; Homo sapiens): 1 µM
antitumor activity relative to cisplatin (CDDP) (tumor cells): 50 to 100 times
IC50 ([4]; Homo sapiens, IMR-32, 48 h): 0.329 µM
IC50 ([5]; Homo sapiens, HepG2): 1 µM
IC50 ([6]; Homo sapiens, NB39, 48 h): 550 nM
IC50 ([7]; Homo sapiens, LAN1, 48 h): 139 nM
apoptosis-inducing effect ([9]; IMR-32, 10 μM): significant apoptosis-inducing effect
ability to induce apoptosis ([9]; IMR-32, 1×10^−5 M to 1×10^−7 M, FIG. 3): induced apoptosis; also recorded: concentration-dependent ability to induce apoptosis
IC50 ([8]; Homo sapiens, 48 h): 0.325 µM
